Seven molecules from patent US5807846A, “Phosphonamide ACAT inhibitors” (Warner-Lambert Company, priority 1997, dated 1998) can be followed below.

Where two headings read alike, the source gives them in different places.

Assay [1] relates to cholesterol. The assay is described as follows: APCC in vivo screen: rats on high fat, high cholesterol diet (PCC), blood cholesterol analysis. Details: species or system male Sprague-Dawley rats. The text has this:
In one in vivo screen designated APCC, male Sprague-Dawley rats (200 to 225 g) were randomly divided into treatment groups and dosed at 4 PM with either vehicle (CMC/Tween) or suspensions of compounds in vehicle. The normal chow diet was then replaced with a high fat, high cholesterol diet (designated PCC) containing 0.5% cholic acid. The rats consumed this diet ad libitum during the night and were sacrificed at 8 AM to obtain blood samples for cholesterol analysis using standard procedures. Statistical differences between mean cholesterol values for the same vehicle were determined using analysis of variance followed by Fisher's least significant test.

For assay [2], the target named is acyl-CoA:cholesterol acyltransferase (ACAT). The assay is described as follows: in vitro ACAT inhibition (LAI): radiolabeled cholesterol oleate formed from radiolabeled oleic acid in rat liver microsomes. The format is biochemical. To be noted: read-out: LAI (IC50, concentration of test compound required to inhibit the activity of the enzyme by 50%). The text has this:
The test assesses the ability of a test compound to inhibit the acylation of cholesterol by oleic acid by measuring the amount of radiolabeled cholesterol oleate formed from radiolabeled oleic acid in a tissue preparation containing rat liver microsomes.
For orientation: Liver microsomes are vesicles of endoplasmic reticulum, rich in cytochrome P450 enzymes.

Turning to `CC(C)c1cc(C(C)C)c(CP(N)(=O)OCc2ccccc2)c(C(C)C)c1` (stereo not drawn) [Monobenzyl, 2,4,6-triisopropylbenzylphosphonamide], the APCC in assay [1] (dose 10 mg/kg, rats, single dose at 4 PM, PCC diet overnight, blood cholesterol at 8 AM) was -4. Also, the IC50 in assay [2] (rat liver microsomes) worked out at 3600 nM. `COP(=O)(Cc1c(C(C)C)cc(C(C)C)cc1C(C)C)NC(=O)Cc1c(C(C)C)cc(C(C)C)cc1C(C)C` (stereo not drawn) [iPr iPr OCH3 CH2, Phosphonamidic acid, N-[[2,4,6-tris(1-methylethyl)phenyl]acetyl]-P-[[2,4,6-tris(1-methylethyl)phenyl]methyl]-, methyl ester]: the IC50 in assay [2] is 740 nM. Turning to `COP(=O)(Cc1c(C(C)C)cccc1C(C)C)NC(=O)Cc1c(C(C)C)cc(C(C)C)cc1C(C)C` (stereo not drawn) [H iPr OCH3 CH2, Phosphonamidic acid, P-[[2,6-bis(1-methylethyl)phenyl]methyl]-N-[[2,4,6-tris(1-methylethyl)phenyl]acetyl]-, methyl ester], in assay [2], the IC50 came out at 1200 nM. With `CC(C)c1cc(C(C)C)c(CC(=O)NP(=O)(Oc2c(C(C)C)cccc2C(C)C)c2ccccc2)c(C(C)C)c1` (stereo not drawn) [H iPr Ph O, Phosphonamidic acid, P-phenyl-N-[[2,4,6-tris(1-methylethyl)phenyl]acetyl]-,2,6-bis(1-methylethyl)phenyl ester], the APCC in assay [1] (rat, in vivo, 10 mg/kg) is reported as -25. Also, the IC50 in assay [2] was 2500 nM. The corresponding values for `COP(=O)(NC(=O)Cc1c(C(C)C)cc(C(C)C)cc1C(C)C)Oc1c(C(C)C)cc(Cl)cc1C(C)C` (stereo not drawn) [Cl iPr OCH3 O, Phosphoramidic acid, [[2,4,6-tris(1-methylethyl)phenyl]acetyl]-, 4-chloro-2,6-bis(1-methylethyl)phenyl methyl ester] are -12 and above 5000 nM. For `COP(=O)(NC(=O)Cc1c(C(C)C)cc(C(C)C)cc1C(C)C)Oc1c(C(C)C)cccc1C(C)C` (stereo not drawn) [iPr H OCH3 O, [(2,4,6-Triisopropyl-phenyl)-acetyl]-phosphoramidic acid 2,6-diisopropyl-phenyl ester methyl ester], the APCC in assay [1] (rat, in vivo, 1 mg/kg) was -18. In addition, the IC50 in assay [2] stood at 4800 nM. In assay [1] (rat, in vivo, 3 mg/kg), `COP(=O)(Cc1c(C(C)C)cc(C(C)C)cc1C(C)C)NC(=O)Cc1c(C(C)C)cccc1C(C)C` (stereo not drawn) [iPr H OCH3 CH2, Phosphonamidic acid, N-[[2,6-bis(1-methyl-ethyl)phenyl)acetyl]-P-[[2,4,6-tris(1-methyl-ethyl)phenyl)methyl]-, methyl ester] came in with an APCC of -44. The IC50 in assay [2] came to 290 nM.
